We go through two compounds from publication PMC11587507, “The Importance of Stereochemistry in 5-HT7R Modulation—A Case Study of Hydantoin Derivatives” (ACS Chemical Neuroscience, 2024).

Read-outs that look alike come from different tables or passages of the source.

The target in one series is T1, 5-HT1AR (Homo sapiens, UniProt P08908).
T1 sequence (P08908 1-422): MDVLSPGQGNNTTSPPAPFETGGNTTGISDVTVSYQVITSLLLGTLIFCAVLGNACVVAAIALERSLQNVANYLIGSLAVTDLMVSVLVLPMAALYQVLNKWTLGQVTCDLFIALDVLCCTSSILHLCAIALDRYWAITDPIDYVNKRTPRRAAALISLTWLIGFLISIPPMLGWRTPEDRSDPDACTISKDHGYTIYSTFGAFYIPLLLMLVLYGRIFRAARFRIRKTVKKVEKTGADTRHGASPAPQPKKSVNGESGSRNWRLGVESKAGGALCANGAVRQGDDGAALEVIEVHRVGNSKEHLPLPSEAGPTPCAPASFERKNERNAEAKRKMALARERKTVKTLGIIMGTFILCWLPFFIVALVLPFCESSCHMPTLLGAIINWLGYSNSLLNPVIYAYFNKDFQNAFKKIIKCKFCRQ
Kind of series: Radioligand binding assay, [3H]-8-OH-DPAT displacement. As to conditions: mean ± SD from two independent measurements; read-out: Ki 5-HT1A. On the procedure: (§1) Cell pellets were thawed and homogenized in 10 vol of assay buffer using an Ultra Turrax tissue homogenizer and centrifuged twice at 35 000 g for 15 min at 4 °C, with incubation for 15 min at 37 °C in between. The composition of the assay buffers was as follows: for 5-HT1AR: 50 mM Tris HCl, 0.1 mM EDTA, 4 mM MgCl2, 10 μM pargyline and 0.1% ascorbate; for 5-HT2AR: 50 mM Tris HCl, 0.1 mM EDTA, 4 mM MgCl2 and 0.1% ascorbate; for 5- HT7bR: 50 mM Tris HCl, 4 mM MgCl2, […] and 0.1% ascorbate; and for dopamine D2LR: 50 mM Tris HCl, 1 mM EDTA, 4 mM MgCl2, 120 mM NaCl, 5 mM KCl, 1.5 mM CaCl2 and 0.1% ascorbate. All assays were incubated in a total volume of […] in 96-well microtiter plates for 1 h at 37 °C, except 5-HT2AR which was incubated at 27 °C. The process of equilibration was terminated by rapid filtration through Unifilter plates with a 96-well cell harvester, and radioactivity retained on the filters was quantified on a Microbeta plate reader (PerkinElmer, USA). For displacement studies, the assay samples contained as radioligands (PerkinElmer, USA): 2.5 nM [^3H]-8-OH-DPAT (135.2 Ci/mmol) for 5-HT1AR; 1 nM [3H]-ketanserin (53.4 Ci/mmol) for 5- HT2AR; 0.8 nM [3H]-5- CT (39.2 Ci/mmol) for 5-HT7R or 2.5 nM [3H]-raclopride (72 Ci/mmol) for D2LR. Nonspecific binding was defined with […] of 5-HT in 5-HT7R binding experiments, whereas […] were used in 5-HT2AR and D2L assays, respectively. Each compound was tested in triplicate at 7 concentrations (10^–10–10^–4 M). The inhibition constants (Ki) were calculated using the Cheng–Prusoff equation.[48] Results were expressed as means of at least two separate experiments.

The test system of a further series is immobility time. Kind of series: Forced swim test (FST, Porsolt's test) in mice. Format: in vivo. The conditions noted are these: 60 min before test. On the procedure:
(§2) The behavioral experiments were performed on male BalbC mice weighing 20–25 g, n = 333. The animals were purchased from the Animal House at the Faculty of Pharmacy, Jagiellonian University Medical College, Krakow, Poland. Mice were kept in groups of ten in Makrolon type 3 cages (dimensions 26.5 × 15 × 42 cm). The animals were kept in an environmentally controlled room (ambient temperature 22 ± 2 °C; relative humidity 50–60%; 12:12 light: dark cycle; and lights on at 8:00). They were allowed to acclimatize with the environment enriched by nesting material, tooth grinding material, houses, and toys for 1 week before commencement of the experiments. During acclimatization, mice were accustomed to the presence of female experimenters and their appropriate manner of animals’ restraint, i.e., cupping each separate mouse in open hands, according to the 3Rs recommendations (handling).[50],[51] Standard laboratory food (Sniff M-Z) and filtered water were freely available. All the experiments were conducted in the light phase between 9 AM and 2 PM. Experimental groups consisted of 6–10 randomly selected animals, depending on the experiment, and each animal was used only once. The experiments were performed by an observer who was unaware of the treatment administered. All the experimental procedures with mice were carried out under EU Directive 2010/63/EU and were approved by the Local Ethics Commission for Animal Experiments of Jagiellonian University in Krakow (Approval nos.:297/2019).
(§3) Compounds were injected once intraperitoneally (i.p.) 60 min before tests, at a volume of 10 mL/kg. Control animals received a vehicle injection according to the same schedule.
The FST experiment was carried out according to the method of Porsolt et al.[52] The total duration of immobility was recorded during the last 4 min of this 6 min period. The reduction of immobility time compared to the control was a measure of antidepressant properties of the tested compound. A mouse was regarded as immobile when it remained floating on water, making only small movements to keep its head above it.

The target in series [1] is T2, 5-HT7R (Homo sapiens, UniProt P34969). Kind of series: Radioligand binding assay, [3H]-5-CT displacement. The conditions noted are these: for Ki: mean ± SD from two independent measurements, read-out: Ki 5-HT7. On the procedure:
as §1
Target sequence in this assay (P34969 1-432): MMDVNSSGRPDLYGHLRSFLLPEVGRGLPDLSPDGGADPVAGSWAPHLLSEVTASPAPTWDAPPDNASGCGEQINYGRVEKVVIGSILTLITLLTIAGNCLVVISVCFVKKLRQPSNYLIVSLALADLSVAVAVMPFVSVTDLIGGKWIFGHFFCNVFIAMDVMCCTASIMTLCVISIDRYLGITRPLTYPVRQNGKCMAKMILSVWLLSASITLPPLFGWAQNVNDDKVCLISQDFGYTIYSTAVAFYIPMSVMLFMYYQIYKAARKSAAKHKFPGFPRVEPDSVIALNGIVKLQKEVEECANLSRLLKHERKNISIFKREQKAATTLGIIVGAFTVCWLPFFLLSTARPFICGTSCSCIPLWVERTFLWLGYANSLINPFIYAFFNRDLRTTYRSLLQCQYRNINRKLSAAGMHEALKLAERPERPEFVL

Series [2] has as its target T2, 5-HT7R. On the set-up: method as in PMID 29439902, PMID 29425815, PMID 28886235, PMID 26900658. The conditions noted are these: earlier results for the racemic hits; read-out: 5-HT7R Ki of reference hit compounds; cited from earlier work.
Target sequence in this assay (P34969 1-432): as above
The next series addresses dopamine D2LR (Homo sapiens, UniProt P14416). Kind of series: Radioligand binding assay, [3H]-raclopride displacement. As to conditions: mean ± SD from two independent measurements; read-out: Ki D2. Here is the method:
as §1

The next series concerns locomotor activity. The series is described as follows: Spontaneous locomotor activity in mice. It counts as in vivo. Here is the method: as §2, §3
Locomotor activity was recorded with an Opto M3 multichannel activity monitor (Columbus Instruments, Columbus, USA). […] According to the 3Rs recommendations,[54] locomotor activity was assessed for the minimal active doses obtained in FST and/or FPT to ensure that detected antidepressant-/anxiolytic-like effects are not the result of increased motility of mice.

The next series concerns punished crossings. Kind of series: Four-plate test (FPT) in mice. The conditions noted are these: for increase of number of punished crossings vs vehicle: i.p., active doses. Format: in vivo. Here is the method:
as §2, §3
The four-plate apparatus (Bioseb, Pinellas Park, USA) was used for tests. Following a 15 s habituation period, the animal’s motivation to explore a novel environment is suppressed by an electric foot shock (0.8 mA, 0.5 s) every time it moves from one plate to another during a 1 min test session. This action is referred to as a “punished crossing” and is followed by a 3 s shock interval, during which the animal can move across plates without receiving a shock.[53]

Another series concerns GABA (non-specific). Kind of series: GABA (non-specific) binding screening at 1 µM (Eurofins Cerep). Here is the method:
(§4) 1.In vitro evaluation towards another related protein target (GABA, NK 1)
(§5) Table S2. Affinity results to GABA and NK 1 […]
(§6) Screening at 1 µM Screening at 1 µM
(§7) (% inhibition of control (% of inhibtion of control agonist response) specific binding) […]
(§8) adata are presented as the mean ± SD from two independent measurements
(§9) The above biological screening have been performed at Eurofins Cerep (2, rue du Professeur GARGOUÏL, B.P. 30001, 86 600 Celle l'Evescault, France according to previously described […]
(§10) Tsuji, A. et al. (1988), Antimicrob. Agents Chemother., 32: 190-194.
(§11) Eistetter, H.R. et al. (1992), Glia, 6: 89-95.
(§12) Detailed parameters for NK1 assay:
(§13) Detailed parameters for GABA (non-specific) assay: […]

The target in series [3] is T2, 5-HT7R. The series is described as follows: cAMP functional assay (HTRF), antagonist effect, CHO cells. It counts as cell-based. Here is the method: The cAMP concentration was measured using the HTRF method. Adenylate cyclase activity was expressed as the percentage of the maximal effect obtained with 300 nM serotonin. The compounds were tested at 7 concentrations (10^–12–10^–6 M) in the h5-HT7 antagonist effect.
Target sequence in this assay (P34969 1-445 isoform P34969-2): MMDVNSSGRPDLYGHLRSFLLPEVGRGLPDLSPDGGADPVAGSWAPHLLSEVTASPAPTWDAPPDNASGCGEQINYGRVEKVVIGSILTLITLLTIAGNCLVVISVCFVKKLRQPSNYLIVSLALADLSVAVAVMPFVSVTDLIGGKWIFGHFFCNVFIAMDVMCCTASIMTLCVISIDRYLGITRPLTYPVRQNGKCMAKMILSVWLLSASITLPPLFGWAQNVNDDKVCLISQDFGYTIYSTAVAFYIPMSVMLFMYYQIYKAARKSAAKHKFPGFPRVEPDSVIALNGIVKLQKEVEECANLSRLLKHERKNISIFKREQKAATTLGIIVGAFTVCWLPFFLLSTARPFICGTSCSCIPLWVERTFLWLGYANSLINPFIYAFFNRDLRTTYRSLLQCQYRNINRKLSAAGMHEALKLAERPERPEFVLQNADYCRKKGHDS
In general terms: TR-FRET usually uses a lanthanide donor and a delayed reading to cut background.

A further series has as its target T3, NK1 (Homo sapiens, UniProt P25103).
T3 construct: Eurofins Cerep
The series is described as follows: NK1 screening at 1 µM (Eurofins Cerep). Format: cell-based. The conditions noted are these: read-out: NK1 % inhibition of control agonist response. On the procedure:
as §4, §5, §6, §7, §8, §9, §10, §11, §12, §13

Another series concerns the target 5-HT2AR (Homo sapiens, UniProt P28223). The series is described as follows: Radioligand binding assay, [3H]-ketanserin displacement. The conditions noted are these: mean ± SD from two independent measurements; read-out: Ki 5-HT2A. Here is the method:
as §1

As a reminder, the Ki is a measure of affinity in units of concentration, obtained from inhibition or displacement. The IC50 is the point on the concentration scale where inhibition reaches its midpoint. A higher IC50 goes with a need for much substance. One may read the Kb as the affinity of an antagonist, worked out from how it opposes an agonist. As usually defined, the inhibition is the relative decrease from the control value, in per cent.

dopamine D2LR, sequence (P14416 whole entry): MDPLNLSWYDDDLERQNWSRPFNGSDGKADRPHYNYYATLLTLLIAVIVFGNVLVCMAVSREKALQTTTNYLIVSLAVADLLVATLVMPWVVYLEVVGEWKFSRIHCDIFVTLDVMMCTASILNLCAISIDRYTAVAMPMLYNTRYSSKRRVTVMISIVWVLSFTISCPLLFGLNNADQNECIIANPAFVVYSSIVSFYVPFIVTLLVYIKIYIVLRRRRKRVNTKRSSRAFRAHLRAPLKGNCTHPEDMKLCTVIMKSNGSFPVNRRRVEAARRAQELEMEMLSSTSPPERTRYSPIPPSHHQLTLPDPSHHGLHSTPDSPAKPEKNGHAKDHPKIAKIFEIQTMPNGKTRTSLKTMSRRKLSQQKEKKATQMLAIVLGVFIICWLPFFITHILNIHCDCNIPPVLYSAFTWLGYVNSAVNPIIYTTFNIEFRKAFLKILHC
5-HT2AR, sequence (P28223 whole entry): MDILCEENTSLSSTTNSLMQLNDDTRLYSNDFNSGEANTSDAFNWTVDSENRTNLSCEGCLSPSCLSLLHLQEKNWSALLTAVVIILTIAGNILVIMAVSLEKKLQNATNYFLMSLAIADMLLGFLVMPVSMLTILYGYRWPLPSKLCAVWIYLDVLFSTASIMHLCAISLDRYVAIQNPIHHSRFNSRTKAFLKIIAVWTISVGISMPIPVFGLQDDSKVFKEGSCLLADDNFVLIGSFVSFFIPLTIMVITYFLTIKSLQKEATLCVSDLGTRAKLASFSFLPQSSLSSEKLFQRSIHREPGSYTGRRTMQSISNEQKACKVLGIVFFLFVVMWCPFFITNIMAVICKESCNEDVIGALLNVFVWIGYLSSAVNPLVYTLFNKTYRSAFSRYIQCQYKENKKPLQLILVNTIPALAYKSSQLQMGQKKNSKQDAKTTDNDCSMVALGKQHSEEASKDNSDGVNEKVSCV
T3 sequence (P25103 whole entry): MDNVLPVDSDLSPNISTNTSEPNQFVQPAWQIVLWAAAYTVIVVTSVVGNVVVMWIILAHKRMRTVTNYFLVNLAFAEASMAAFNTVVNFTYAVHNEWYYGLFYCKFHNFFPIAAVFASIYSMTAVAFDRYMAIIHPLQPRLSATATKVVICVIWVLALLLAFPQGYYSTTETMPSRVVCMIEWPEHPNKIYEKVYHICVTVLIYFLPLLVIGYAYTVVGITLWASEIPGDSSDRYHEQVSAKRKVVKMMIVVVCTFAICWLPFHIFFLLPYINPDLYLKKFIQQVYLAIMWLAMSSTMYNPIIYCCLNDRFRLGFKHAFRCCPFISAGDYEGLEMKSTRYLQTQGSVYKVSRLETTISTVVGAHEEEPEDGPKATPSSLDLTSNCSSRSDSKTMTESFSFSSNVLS

On to `CC1(c2ccc(F)cc2)NC(=O)N(CC(O)CN2CCN(C(c3ccccc3)c3ccccc3)CC2)C1=O` (stereo not drawn) [Compound 2], for which the Ki was 5.57 ± 1.41 µM on 5-HT1AR, 79 ± 6 nM at 5-HT7R [1], below 100 nM on 5-HT7R [2] and 261 ± 38 nM on dopamine D2LR. Also, the “decrease of immobility time vs vehicle” value in the series with immobility time (0.312 mg/kg i.p.) was 25%; in the series on immobility time (0.63 mg/kg i.p.) it was “about 40%”; in the series with immobility time (1.25 mg/kg i.p.), “about 40%”; with immobility time (2.5 mg/kg i.p.), “about 40%”; in the series on immobility time (5 mg/kg i.p.), 26%. In addition, the “locomotor activity number of crossings ± SEM during 3–6 min” value is recorded as 108.00 ± 42.04; NS with locomotor activity (0.312 mg/kg i.p.) and 211.50 ± 29.38; NS in the series on locomotor activity (2.5 mg/kg i.p.). The “locomotor activity number of crossings ± SEM during 1 min” value was 9.75 ± 5.45; NS with locomotor activity (0.312 mg/kg i.p.) and 16.50 ± 6.12; NS in the series with locomotor activity (2.5 mg/kg i.p.). In addition, the “locomotor activity number of crossings ± SEM during 60 min” value with locomotor activity (0.312 mg/kg i.p.) is 702.75 ± 122.53; NS; in the series with locomotor activity (2.5 mg/kg i.p.), 2482.75 ± 587.23; NS. For the same compound, the “increase of number of punished crossings” value in the series on punished crossings (2.5 mg/kg i.p.) was found to be 62%. Moreover, in the series on punished crossings, the “increase of number of punished crossings vs vehicle” value is given as “about 60%”.
As for `C[C@@]1(c2ccc(F)cc2)NC(=O)N(C[C@H](O)CN2CCN(C(c3ccccc3)c3ccccc3)CC2)C1=O` [Compound 6.4, (S)-3-((R)-3-(4-Benzhydrylpiperazin-1-yl)-2-hydroxypropyl)-5-(4-fluorophenyl)-5-methylimidazolidine-2,4-dione], the Ki stood at 8.93 ± 1.84 µM on 5-HT1AR, 8 ± 3 nM on 5-HT7R [1], 511 ± 96 nM at dopamine D2LR and 5.79 ± 1.07 µM at 5-HT2AR. In addition, the “decrease of immobility time vs vehicle” value in the series on immobility time (2.5 mg/kg i.p.) turned out to be 29%. For the same compound, the “GABA (non-specific) % of inhibition of control specific binding” value in the series on GABA (non-specific) was 26%. On 5-HT7R [1] (ratio of Ki values), the “fold higher 5-HT7R affinity in comparison to 2” value is around 10 fold. The “intrinsic activity at 5-HT7R” value at 5-HT7R [3] (cAMP functional test) is “antagonists”. In addition, the 50% inhibitory concentration (IC50) against 5-HT7R [3] (cAMP, CHO cells, h5-HT7 antagonist effect vs 300 nM serotonin) turned out to be 113 ± 25 nM. The antagonist dissociation constant (Kb) on 5-HT7R [3] (cAMP, CHO cells, h5-HT7 antagonist effect, read-out: Kb ± SEM) amounted to 14 ± 3 nM. In addition, the inhibition at 1 µM on NK1 was -4.4%. For the same compound, the “locomotor activity number of crossings ± SEM during 3–6 min” value with locomotor activity (1.25 mg/kg i.p.) is recorded as 63.75 ± 25.93; NS; in the series on locomotor activity (2.5 mg/kg i.p.), 105.75 ± 49.57; NS. The “locomotor activity number of crossings ± SEM during 1 min” value with locomotor activity (1.25 mg/kg i.p.) is on record as 4.25 ± 0.46; NS. Besides, the figures for the “locomotor activity number of crossings ± SEM during 60 min” value with locomotor activity (1.25 mg/kg i.p.) and in the series on locomotor activity (2.5 mg/kg i.p.) were 694.25 ± 78.90; NS and 922.50 ± 74.78; p < 0.001, respectively. For the same compound, the anxiolytic-like activity entry in the series on punished crossings (5 mg/kg i.p.) is “did not reach significant levels”; with punished crossings (doses of 1.25, 2.5 and 10 mg/kg i.p.), “active”. For the same compound, the “increase of number of punished crossings vs vehicle” value in the series with punished crossings is reported as “about 60%”.
